From paper PMC7181131, “N-Pyrazinoyl Substituted Amino Acids as Potential Antimycobacterial Agents—the Synthesis and Biological Evaluation of Enantiomers” (Molecules, 2020)
In brackets after ≈: the same amount, converted by molar mass. Where two headings read alike, the source gives them in different places.

How the values were obtained:
[1] = tested on: Mtb H37Ra ITM-M006710 (ATCC 9431); experiment: Microplate Alamar Blue Assay (MABA) microdilution, Mtb H37Ra; type: cell-based, Mycobacterium tuberculosis; conditions: Mycobacterium tuberculosis
[2] = tested on: M. smegmatis DSM 43465 (ATCC 607); experiment: Microplate Alamar Blue Assay (MABA) microdilution, M. smegmatis; type: cell-based, Mycobacterium smegmatis; conditions: Mycolicibacterium smegmatis
[3] = tested on: Mycobacterium aurum DSM 43999 (ATCC 23366); experiment: Microplate Alamar Blue Assay (MABA) microdilution, M. aurum; type: cell-based; conditions: Mycolicibacterium aurum
[4] = tested on: Staphylococcus epidermidis CCM 4418 (ATCC 12228); experiment: Antibacterial microdilution broth method, SE; type: cell-based; conditions: 24 h, read-out: MIC SE
[5] = tested on: Candida albicans CCM 8320 (ATCC 24433); experiment: Antifungal microdilution broth method, CA; type: cell-based; conditions: 24 h, read-out: MIC CA
[6] = tested on: Candida krusei CCM 8271 (ATCC 6258); experiment: Antifungal microdilution broth method, CK; type: cell-based; conditions: Pichia kudriavzevii, 24 h, read-out: MIC CK
[7] = tested on: Candida parapsilosis CCM 8260 (ATCC 22019); experiment: Antifungal microdilution broth method, CP; type: cell-based; conditions: Lodderomyces parapsilosis, 24 h, read-out: MIC CP
[8] = tested on: Candida tropicalis CCM 8264 (ATCC 750); experiment: Antifungal microdilution broth method, CT; type: cell-based; conditions: 24 h, read-out: MIC CT
[9] = tested on: Aspergillus fumigatus ATCC 204305; experiment: Antifungal microdilution broth method, AF; type: cell-based; conditions: ATCC204305, 48 h, read-out: MIC AF
[10] = tested on: Aspergillus flavus CCM 8363; experiment: Antifungal microdilution broth method, AFla; type: cell-based; conditions: CCM8363, read after 48 h (filamentous fungi), read-out: MIC AFla
Method: 6. In vitro antifungal activity screening
Antifungal activity evaluation was performed using a microdilution broth method according to EUCAST instructions (The European Committee on Antimicrobial Susceptibility Testing) with slight modifications. Eight fungal strains (four yeast and four mould strains) were used for antifungal […]
and Trichophyton interdigitale CCM 8377 (ATCC 9533). Tested strains were purchased from the Czech Collection of Microorganisms (CCM, Brno, Czech Republic) or from the American Type Collection Cultures (ATCC, Manassas, VA, USA). Tested compounds were dissolved in DMSO and diluted in a twofold manner with RPMI 1640 medium, with glutamine and 2% glucose, buffered to pH 7.0 with MOPS (3-morpholinopropane-1-sulfonic acid). The final concentration of DMSO in the testing […]
Static incubation was performed in the dark and in humid atmosphere, at 35±2 °C, for 24 and 48 h (72 and 120 h for Trichophyton interdigitale respectively). Positive controls consisted of test microbe solely, while negative controls consisted of cultivation medium and DMSO. Visual inspection and metabolic activity indicator, Alamar Blue (ThermoFisher Scientific), were used for MIC endpoint evaluation. The internal quality standards, amphotericin B (Sigma-Aldrich) and voriconazole (Toronto research Chemicals, CA) were involved in assays (for MIC of standards see Table S5). All experiments were conducted in duplicates.
For the results to be valid, the difference in MIC for one compound determined from two parallel measurements must not be greater than one step on the dilution scale.

[11] = tested on: Lichtheimia corymbifera CCM 8077; experiment: Antifungal microdilution broth method, LC; type: cell-based; conditions: CCM8077, 48 h, read-out: MIC LC
[12] = tested on: Trichophyton interdigitale CCM 8377 (ATCC 9533); experiment: Antifungal microdilution broth method, TI; type: cell-based; conditions: 48 h, read-out: MIC TI
[13] = tested on: Klebsiella pneumoniae CCM 4415 (ATCC 10031); experiment: Antibacterial microdilution broth method, KP; conditions: read after 24 h of incubation
[14] = pH 6.6, read-out: MIC Mtb H37Ra
[15] = pH 6, calculated from µg/mL, read-out: MIC Mtb H37Ra
[16] = pH 6, read-out: MIC M. smegmatis µg/mL
[17] = pH 6.6, read-out: MIC M. smegmatis
[18] = pH 6, read-out: MIC M. aurum µg/mL

SMILES | MIC ([1]; pH 6) [mg/L] | MIC ([1]; pH 6, read-out: MIC Mtb H37Ra) [mg/L] | MIC [1, 14] [mg/L] | MIC [1, 15] [µM] | MIC [2, 16] [µg/mL] | MIC [2, 17] [µg/mL] | MIC [3, 18] [µg/mL] | MIC ([3]; pH 6.6, read-out: MIC M. aurum) [µg/mL] | MIC [4] [µM] | MIC [5] [µM] | MIC [6] [µM] | MIC [7] [µM] | MIC [8] [µM] | MIC [9] [µM] | MIC [10] [µM] | MIC [11] [µM] | MIC [12] [µM] | MIC KP [13] [µM]
COC(=O)[C@H](C)NC(=O)c1cnccn1 (racemic) [PC-DL-Ala-Me, methyl (pyrazine-2-carbonyl)alaninate] | ≥ 125 | ≥ 125 | ≥ 500 | ≥ 598 | ≥ 125 | ≥ 500 | ≥ 125 | ≥ 500 | > 500 | > 500 | 250 (≈ 52.3 µg/mL) | > 500 | > 500 | > 500 | > 500 | > 500 | > 500 | > 500
COC(=O)[C@@H](COC(C)(C)C)NC(=O)c1cnccn1 [PC-D-OtBu-Ser-Me, methyl O-(tert-butyl)-N-(pyrazine-2-carbonyl)-D-serinate] | ≥ 500 | ≥ 500 | ≥ 500 | ≥ 1780 | ≥ 500 | ≥ 500 | ≥ 500 | ≥ 500 | > 500 | > 500 | > 500 | > 500 | > 500 | > 500 | > 500 | > 500 | > 500 | > 500
CCOC(=O)CC[C@H](NC(=O)c1cnccn1)C(=O)OCC [PC-L-Glu-diEt, diethyl (pyrazine-2-carbonyl)-L-glutamate] | 31.2 | 31.2 | ≥ 500 | 101 | ≥ 500 | ≥ 500 | ≥ 500 | ≥ 500 | > 500 | > 500 | > 500 | > 500 | > 500 | > 500 | > 500 | > 500 | > 500 | > 500
CCOC(=O)C[C@H](NC(=O)c1cnccn1)C(=O)OCC [PC-L-Asp-diEt, diethyl (pyrazine-2-carbonyl)-L-aspartate] | ≥ 125 | ≥ 125 | ≥ 500 | ≥ 423 | ≥ 125 | ≥ 500 | ≥ 125 | ≥ 500 | 500 (≈ 148 µg/mL) | > 500 | > 500 | > 500 | > 500 | > 500 | > 500 | > 500 | > 500 | > 500
CCOC(=O)[C@@H](C)NC(=O)c1cnccn1 [PC-D-Ala-Et, ethyl (pyrazine-2-carbonyl)-D-alaninate] | ≥ 125 | ≥ 125 | ≥ 500 | ≥ 560 | ≥ 125 | ≥ 500 | ≥ 125 | ≥ 500 | > 500 | > 500 | > 500 | > 500 | > 500 | > 500 | > 500 | > 500 | > 500 | > 500
COC(=O)[C@@H](CO)NC(=O)c1cnccn1 [PC-D-Ser-Me, methyl (pyrazine-2-carbonyl)-D-serinate] | 250 | 250 | ≥ 500 | 1110 | ≥ 500 | ≥ 500 | 250 (≈ 1110 µM) | ≥ 500 | > 500 | > 500 | > 500 | > 500 | > 500 | > 500 | > 500 | > 500 | > 500 | > 500
